Source: ChEMBL document CHEMBL1201861, “Genomics of Drug Sensitity in Cancer screening data, Wellcome Trust Sanger Institute”

How the values were obtained:
Test in all cases: cells
Type in all cases: functional, cell-based
HT-1376 = details: Homo sapiens
Description: SANGER: Inhibition of human HT-1376 cell growth in a cell viability assay.

NY = details: Homo sapiens
Description: SANGER: Inhibition of human NY cell growth in a cell viability assay.

DU-145 = details: Homo sapiens
Description: SANGER: Inhibition of human DU-145 cell growth in a cell viability assay.

NCI-H661 = details: Homo sapiens
Description: SANGER: Inhibition of human NCI-H661 cell growth in a cell viability assay.

NCI-H1993 = details: Homo sapiens
Description: SANGER: Inhibition of human NCI-H1993 cell growth in a cell viability assay.

PA-1 = details: Homo sapiens
Description: SANGER: Inhibition of human PA-1 cell growth in a cell viability assay.

SK-MEL-30 = details: Homo sapiens
Description: SANGER: Inhibition of human SK-MEL-30 cell growth in a cell viability assay.

YKG-1 = details: Homo sapiens
Description: SANGER: Inhibition of human YKG-1 cell growth in a cell viability assay.

CP50-MEL-B = details: Homo sapiens
Description: SANGER: Inhibition of human CP50-MEL-B cell growth in a cell viability assay.

CWR22R = details: Homo sapiens, 22Rv1
Description: SANGER: Inhibition of human 22RV1 cell growth in a cell viability assay.

HT55 = details: Homo sapiens
Description: SANGER: Inhibition of human HT55 cell growth in a cell viability assay.

NCI-H2342 = details: Homo sapiens
Description: SANGER: Inhibition of human NCI-H2342 cell growth in a cell viability assay.

CHL-1 = details: Homo sapiens
Description: SANGER: Inhibition of human CHL-1 cell growth in a cell viability assay.

NCI-H2009 = details: Homo sapiens
Description: SANGER: Inhibition of human NCI-H2009 cell growth in a cell viability assay.

RPMI-2650 = details: Homo sapiens
Description: SANGER: Inhibition of human RPMI-2650 cell growth in a cell viability assay.

NCI-H28 = details: Homo sapiens
Description: SANGER: Inhibition of human NCI-H28 cell growth in a cell viability assay.

NB12 = details: Homo sapiens
Description: SANGER: Inhibition of human NB12 cell growth in a cell viability assay.

HSC-3 = details: Homo sapiens
Description: SANGER: Inhibition of human HSC-3 cell growth in a cell viability assay.

NCI-H2405 = details: Homo sapiens
Description: SANGER: Inhibition of human NCI-H2405 cell growth in a cell viability assay.

C-33-A = details: Homo sapiens
Description: SANGER: Inhibition of human C-33-A cell growth in a cell viability assay.

DoTc2-4510 = details: Homo sapiens
NCI-H1573 = details: Homo sapiens
Description: SANGER: Inhibition of human NCI-H1573 cell growth in a cell viability assay.

SK-MES-1 = details: Homo sapiens
Description: SANGER: Inhibition of human SK-MES-1 cell growth in a cell viability assay.

WM-115 = details: Homo sapiens
Description: SANGER: Inhibition of human WM-115 cell growth in a cell viability assay.

OE19 = details: Homo sapiens
Description: SANGER: Inhibition of human OE19 cell growth in a cell viability assay.

T98G = details: Homo sapiens
Description: SANGER: Inhibition of human T98G cell growth in a cell viability assay.

M059J = details: Homo sapiens
Description: SANGER: Inhibition of human M059J cell growth in a cell viability assay.

UO-31 = details: Homo sapiens
Description: SANGER: Inhibition of human U031 cell growth in a cell viability assay.

HCC 2998 = details: Homo sapiens
Description: SANGER: Inhibition of human HCC2998 cell growth in a cell viability assay.

NCI-H1623 = details: Homo sapiens
Description: SANGER: Inhibition of human NCI-H1623 cell growth in a cell viability assay.

CaR-1 = details: Homo sapiens
Description: SANGER: Inhibition of human CaR-1 cell growth in a cell viability assay.

PANC-08-13 = details: Homo sapiens
Description: SANGER: Inhibition of human PANC-08-13 cell growth in a cell viability assay.

ME-180 = details: Homo sapiens
Description: SANGER: Inhibition of human ME-180 cell growth in a cell viability assay.

UMC-11 = details: Homo sapiens
Description: SANGER: Inhibition of human UMC-11 cell growth in a cell viability assay.

HOP-92 = details: Homo sapiens
Description: SANGER: Inhibition of human HOP-92 cell growth in a cell viability assay.

VMRC-RCZ = details: Homo sapiens
Description: SANGER: Inhibition of human VMRC-RCZ cell growth in a cell viability assay.

CAL-72 = details: Homo sapiens
Description: SANGER: Inhibition of human CAL-72 cell growth in a cell viability assay.

23132-87 = details: Homo sapiens
Description: SANGER: Inhibition of human 23132-87 cell growth in a cell viability assay.

NCI-N87 = details: Homo sapiens
Description: SANGER: Inhibition of human NCI-N87 cell growth in a cell viability assay.

SW1710 = details: Homo sapiens
Description: SANGER: Inhibition of human SW1710 cell growth in a cell viability assay.

SW1990 = details: Homo sapiens
Description: SANGER: Inhibition of human SW1990 cell growth in a cell viability assay.

MKN-7 = details: Homo sapiens
Description: SANGER: Inhibition of human MKN7 cell growth in a cell viability assay.

RD = details: Homo sapiens
Description: SANGER: Inhibition of human RD cell growth in a cell viability assay.

M14 = details: Homo sapiens
Description: SANGER: Inhibition of human M14 cell growth in a cell viability assay.

MDA-MB-231 = details: Homo sapiens
Description: SANGER: Inhibition of human MDA-MB-231 cell growth in a cell viability assay.

Ca-Ski = details: Homo sapiens
Description: SANGER: Inhibition of human Ca-Ski cell growth in a cell viability assay.

RVH-421 = details: Homo sapiens
Description: SANGER: Inhibition of human RVH-421 cell growth in a cell viability assay.

HCC70 = details: Homo sapiens
Description: SANGER: Inhibition of human HCC70 cell growth in a cell viability assay.

## Cn1cc(/C=C2\C(=O)Nc3cccnc32)c2ccccc21
HT-1376
  IC50: > 2000 nM
NY
  IC50: > 2000 nM
DU-145
  IC50: > 2000 nM
NCI-H661
  IC50: > 2000 nM
NCI-H1993
  IC50: > 2000 nM
PA-1
  IC50: > 2000 nM
SK-MEL-30
  IC50: > 2000 nM
YKG-1
  IC50: > 2000 nM
CP50-MEL-B
  IC50: > 2000 nM
CWR22R
  IC50: > 2000 nM
HT55
  IC50: > 2000 nM
NCI-H2342
  IC50: > 2000 nM
CHL-1
  IC50: > 2000 nM
NCI-H2009
  IC50: > 2000 nM
RPMI-2650
  IC50: > 2000 nM
NCI-H28
  IC50: > 2000 nM
NB12
  IC50: > 2000 nM
HSC-3
  IC50: > 2000 nM
NCI-H2405
  IC50: > 2000 nM
C-33-A
  IC50: > 2000 nM
DoTc2-4510
  IC50: > 2000 nM
NCI-H1573
  IC50: > 2000 nM
SK-MES-1
  IC50: > 2000 nM
WM-115
  IC50: > 2000 nM
OE19
  IC50: > 2000 nM
T98G
  IC50: > 2000 nM
M059J
  IC50: > 2000 nM
UO-31
  IC50: > 2000 nM
HCC 2998
  IC50: > 2000 nM
NCI-H1623
  IC50: > 2000 nM
CaR-1
  IC50: > 2000 nM
PANC-08-13
  IC50: > 2000 nM
ME-180
  IC50: > 2000 nM
UMC-11
  IC50: > 2000 nM
HOP-92
  IC50: > 2000 nM
VMRC-RCZ
  IC50: > 2000 nM
CAL-72
  IC50: > 2000 nM
23132-87
  IC50: > 2000 nM
NCI-N87
  IC50: > 2000 nM
SW1710
  IC50: > 2000 nM
SW1990
  IC50: > 2000 nM
MKN-7
  IC50: > 2000 nM
RD
  IC50: > 2000 nM
M14
  IC50: > 2000 nM
MDA-MB-231
  IC50: > 2000 nM
Ca-Ski
  IC50: > 2000 nM
RVH-421
  IC50: > 2000 nM
HCC70
  IC50: > 2000 nM

## CCCS(=O)(=O)Nc1ccc(F)c(C(=O)c2c[nH]c3ncc(Cl)cc23)c1F [PLX-4720]
HT-1376
  IC50: > 10000 nM
NY
  IC50: > 10000 nM
DU-145
  IC50: > 10000 nM
NCI-H661
  IC50: > 10000 nM
NCI-H1993
  IC50: > 10000 nM
PA-1
  IC50: 2730 nM
SK-MEL-30
  IC50: 1330 nM
YKG-1
  IC50: > 10000 nM
CP50-MEL-B
  IC50: 298 nM
CWR22R
  IC50: > 10000 nM
HT55
  IC50: > 10000 nM
NCI-H2342
  IC50: > 10000 nM
CHL-1
  IC50: 5980 nM
NCI-H2009
  IC50: > 10000 nM
RPMI-2650
  IC50: > 10000 nM
NCI-H28
  IC50: > 10000 nM
NB12
  IC50: > 10000 nM
HSC-3
  IC50: 8070 nM
NCI-H2405
  IC50: > 10000 nM
C-33-A
  IC50: > 10000 nM
DoTc2-4510
  IC50: > 10000 nM
NCI-H1573
  IC50: > 10000 nM
SK-MES-1
  IC50: > 10000 nM
WM-115
  IC50: 887 nM
OE19
  IC50: > 10000 nM
T98G
  IC50: > 10000 nM
M059J
  IC50: > 10000 nM
UO-31
  IC50: > 10000 nM
HCC 2998
  IC50: > 10000 nM
NCI-H1623
  IC50: > 10000 nM
CaR-1
  IC50: > 10000 nM
PANC-08-13
  IC50: > 10000 nM
ME-180
  IC50: > 10000 nM
UMC-11
  IC50: > 10000 nM
HOP-92
  IC50: > 10000 nM
VMRC-RCZ
  IC50: > 10000 nM
CAL-72
  IC50: 6450 nM
23132-87
  IC50: > 10000 nM
NCI-N87
  IC50: > 10000 nM
SW1710
  IC50: > 10000 nM
SW1990
  IC50: > 10000 nM
MKN-7
  IC50: > 10000 nM
RD
  IC50: > 10000 nM
M14
  IC50: 218 nM
MDA-MB-231
  IC50: > 10000 nM
Ca-Ski
  IC50: > 10000 nM
RVH-421
  IC50: 868 nM
HCC70
  IC50: > 10000 nM

## CC[C@]1(O)C[C@@H]2CN(CCc3c([nH]c4ccccc34)[C@@](C(=O)OC)(c3cc4c(cc3OC)N(C)[C@H]3[C@@](O)(C(=O)OC)[C@H](OC(C)=O)[C@]5(CC)C=CCN6CC[C@]43[C@@H]65)C2)C1 [VINBLASTINE]
HT-1376
  IC50: 60.4 nM
NY
  IC50: > 100 nM
DU-145
  IC50: 98.7 nM
NCI-H661
  IC50: 8.05 nM
NCI-H1993
  IC50: > 100 nM
PA-1
  IC50: 8.09 nM
SK-MEL-30
  IC50: > 100 nM
YKG-1
  IC50: 5.53 nM
CP50-MEL-B
  IC50: 13.1 nM
CWR22R
  IC50: 9.82 nM
HT55
  IC50: > 100 nM
NCI-H2342
  IC50: > 100 nM
CHL-1
  IC50: 12 nM
NCI-H2009
  IC50: 53.4 nM
RPMI-2650
  IC50: 26.6 nM
NCI-H28
  IC50: 34.3 nM
NB12
  IC50: 61.4 nM
HSC-3
  IC50: 4.39 nM
NCI-H2405
  IC50: > 100 nM
C-33-A
  IC50: 12.7 nM
DoTc2-4510
  IC50: 16.5 nM
NCI-H1573
  IC50: 30.7 nM
SK-MES-1
  IC50: 8.64 nM
WM-115
  IC50: 10.2 nM
OE19
  IC50: > 100 nM
T98G
  IC50: 11.4 nM
M059J
  IC50: 15.1 nM
UO-31
  IC50: 13.9 nM
HCC 2998
  IC50: 19.8 nM
NCI-H1623
  IC50: > 100 nM
CaR-1
  IC50: 45.7 nM
PANC-08-13
  IC50: 61.5 nM
ME-180
  IC50: 4.47 nM
UMC-11
  IC50: 76.2 nM
HOP-92
  IC50: 25.9 nM
VMRC-RCZ
  IC50: 19.3 nM
CAL-72
  IC50: > 100 nM
23132-87
  IC50: 20.6 nM
NCI-N87
  IC50: 5.67 nM
SW1710
  IC50: 5.61 nM
SW1990
  IC50: 61.4 nM
MKN-7
  IC50: 76.7 nM
RD
  IC50: 4.17 nM
M14
  IC50: 3.19 nM
MDA-MB-231
  IC50: 44.6 nM
Ca-Ski
  IC50: 4.69 nM
RVH-421
  IC50: 7.25 nM
HCC70
  IC50: 20.8 nM

## COc1cc(Nc2c(C#N)cnc3cc(OCCCN4CCN(C)CC4)c(OC)cc23)c(Cl)cc1Cl [BOSUTINIB]
HT-1376
  IC50: 1640 nM
NY
  IC50: > 2000 nM
DU-145
  IC50: > 2000 nM
NCI-H661
  IC50: > 2000 nM
NCI-H1993
  IC50: > 2000 nM
PA-1
  IC50: > 2000 nM
SK-MEL-30
  IC50: > 2000 nM
YKG-1
  IC50: > 2000 nM
CP50-MEL-B
  IC50: > 2000 nM
CWR22R
  IC50: > 2000 nM
HT55
  IC50: > 2000 nM
NCI-H2342
  IC50: > 2000 nM
CHL-1
  IC50: 555 nM
NCI-H2009
  IC50: > 2000 nM
RPMI-2650
  IC50: > 2000 nM
NCI-H28
  IC50: > 2000 nM
NB12
  IC50: > 2000 nM
HSC-3
  IC50: 1120 nM
NCI-H2405
  IC50: > 2000 nM
C-33-A
  IC50: > 2000 nM
DoTc2-4510
  IC50: > 2000 nM
NCI-H1573
  IC50: > 2000 nM
SK-MES-1
  IC50: > 2000 nM
WM-115
  IC50: > 2000 nM
OE19
  IC50: > 2000 nM
T98G
  IC50: > 2000 nM
M059J
  IC50: > 2000 nM
UO-31
  IC50: > 2000 nM
HCC 2998
  IC50: > 2000 nM
NCI-H1623
  IC50: > 2000 nM
CaR-1
  IC50: > 2000 nM
PANC-08-13
  IC50: > 2000 nM
ME-180
  IC50: > 2000 nM
UMC-11
  IC50: > 2000 nM
HOP-92
  IC50: > 2000 nM
VMRC-RCZ
  IC50: > 2000 nM
CAL-72
  IC50: > 2000 nM
23132-87
  IC50: > 2000 nM
NCI-N87
  IC50: > 2000 nM
SW1710
  IC50: > 2000 nM
SW1990
  IC50: > 2000 nM
MKN-7
  IC50: > 2000 nM
RD
  IC50: > 2000 nM
M14
  IC50: > 2000 nM
MDA-MB-231
  IC50: > 2000 nM
Ca-Ski
  IC50: > 2000 nM
RVH-421
  IC50: > 2000 nM
HCC70
  IC50: > 2000 nM
